Reference: PMC5111108, “An insecticide resistance-breaking mosquitocide targeting inward rectifier potassium channels in vectors of Zika virus and malaria” (Scientific Reports, 2016)

What was measured:
Type in all cases: cell-based
AeKir1 [1] = target: T1, AeKir1 (Aedes aegypti, UniProt L0EQS9); assay: Tl+ flux assay, AeKir1
T1 sequence (L0EQS9 1-486): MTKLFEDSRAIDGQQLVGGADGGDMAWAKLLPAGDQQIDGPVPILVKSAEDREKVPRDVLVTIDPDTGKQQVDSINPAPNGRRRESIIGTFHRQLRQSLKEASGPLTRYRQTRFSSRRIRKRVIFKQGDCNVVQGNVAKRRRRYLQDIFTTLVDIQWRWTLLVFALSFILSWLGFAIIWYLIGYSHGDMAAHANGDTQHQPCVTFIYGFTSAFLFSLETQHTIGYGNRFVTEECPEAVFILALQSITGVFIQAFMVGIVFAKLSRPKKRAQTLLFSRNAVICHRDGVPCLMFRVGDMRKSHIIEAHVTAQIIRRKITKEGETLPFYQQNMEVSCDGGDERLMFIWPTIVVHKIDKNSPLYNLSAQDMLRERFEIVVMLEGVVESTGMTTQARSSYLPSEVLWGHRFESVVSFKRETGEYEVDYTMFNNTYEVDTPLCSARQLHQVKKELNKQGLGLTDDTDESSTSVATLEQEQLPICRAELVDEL

AeKir1 [2] = target: T1, AeKir1; assay: Two-electrode voltage clamp in Xenopus oocytes expressing AeKir1 or AeKir2B; details: 50 μM, inward K+ currents at -140 mV
Experimental: Heterologous expression of AeKir1 or AeKir2B was performed in Xenopus laevis oocytes as described previously. Current-voltage (I-V) relationships of oocytes were acquired by clamping the membrane potential (Vm) near the spontaneous, resting Vm and then initiating a voltage-stepping protocol (via the Clampex module of pCLAMP) consisting of 20 mV steps from −140 mV to +40 mV (100 ms each). Additional details are provided in the Supplemental Methods.
Patch clamp electrophysiology
Patch electrodes were pulled from silanized 1.5 mm outer diameter borosilicate microhematocrit tubes using a P-1000 Flaming/Brown micropipette puller (Sutter Instrument, Novato CA, USA). Electrode resistance ranged from 2 -4 MΩ. Whole-cell currents were recorded under voltage-clamp conditions using an Axopatch 200B amplifier (Molecular D evices, Sunn yvale, CA). […]
The voltage clamp was then turned off during solution changes, and when the oocyte reach ed a n ew stead y-state Vm (~90 s) the I-V relationship of the ooc yt e was acquired again. All Vm and Im v alues were digitally recorded (Digidata 1440A Data Acquisition System, Molecular Devices) and the r esulting I-V plots were generated with the Clampfit module of pC LAMP. […]
[…]

Kir4.1 = target: T2, Kir4.1 (Homo sapiens, UniProt P78508); assay: Tl+ flux assay, mammalian Kir4.1
T2 construct: expressed in transfected cells
T2 sequence (P78508 1-379): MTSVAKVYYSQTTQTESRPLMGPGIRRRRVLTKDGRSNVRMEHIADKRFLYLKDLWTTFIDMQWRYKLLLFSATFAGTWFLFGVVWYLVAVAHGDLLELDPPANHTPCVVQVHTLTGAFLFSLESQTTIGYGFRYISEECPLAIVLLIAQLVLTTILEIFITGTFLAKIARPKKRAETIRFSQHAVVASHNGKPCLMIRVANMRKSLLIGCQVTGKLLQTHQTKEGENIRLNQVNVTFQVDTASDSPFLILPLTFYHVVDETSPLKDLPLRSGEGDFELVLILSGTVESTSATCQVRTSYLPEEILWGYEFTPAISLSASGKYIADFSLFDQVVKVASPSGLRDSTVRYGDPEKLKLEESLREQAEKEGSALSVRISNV

In the case of `O=C(Cn1nc(C(F)(F)F)c2c1CCCC2)N1CCCc2ccccc21` [VU041, 1-(3,4-dihydroquinolin-1(2H)-yl)-2-(3-(trifluoromethyl)-4,5,6,7-tetrahydro-1H-indazol-1-yl)ethan-1-one], the IC50 (AeKir1 [1]) is reported as 1700 nM, the “preference of inhibition AeKir1 vs AeKir2B” value (AeKir1 [2]) is reported as “preferentially inhibited AeKir1 over AeKir2B” and the inhibition at 30 µM (Kir4.1) is reported as less than 10%.
